The source of these data is patent US20230000808A1, “COMPOSITIONS AND METHODS EXCLUDING OR WITH REDUCED GLUTAMINE FOR THE TREATMENT OF HEMOGLOBINOPATHIES AND THALASSEMIAS” (AXCELLA HEALTH INC., priority 2019, published 2023).

Some results are limits rather than exact numbers.

Holding throughout (format): cell-based, human
One assay has as its system IL-6. The assay is described as follows: IL-6 in HLMVEC/TNF-α model (ELISA). Particulars: for IL-6 expression relative to TNF Control, Mean % Change: HLMVEC/TNF-α model, 24 h, ELISA. The procedure: Cells were incubated at 37° C., 5% CO2 in a humidified incubator. Cells were passaged at least 1-2 times in the complete growth medium every 2-3 days until ready to plate for cell culture studies. Once ready for experiment, HLMVECs were seeded at a density of 6K cells per well of the 96 well optical microplates (Thermofisher) in the complete growth medium described above and the plated cells were incubated for 24 hours at 37° C. in a humidified incubator with 5% CO2. […] The values are published in the Human Metabolome Database (Wishart D S, et al., Nucleic Acids Res. 2007 January; 35:[…]-6) which is hereby incorporated by reference in its entirety. The medium was also supplemented with growth factors & antibiotics from EGM2-MV kit (Lonza) except the kit-provided FBS which was substituted with dialyzed FBS (Hyclone). […] Human MCP-1 was measured by ELISA (Human […] DuoSet ELISA, R&D Systems) at 1/70 dilution in 1× Reagent Diluent (Reagent Ancillary Kit 2, R&D Systems). Samples were run in triplicates. […] Samples were run in triplicates. Mean percent change in cytokine levels relative to vehicle are reported herein. Statistical analysis was done using two sample t-test.

The test system of a further assay is sVCAM-1. The assay is described as follows: Soluble VCAM-1 in HLMVEC/TNF-α model (Luminex). Particulars: for sVCAM-1 expression relative to TNF Control, Mean % Change: 20×HMDB amino acids, 24 h co-treatment. The procedure:
(§1) Cells were incubated at 37° C., 5% CO2 in a humidified incubator. Cells were passaged at least 1-2 times in the complete growth medium every 2-3 days until ready to plate for cell culture studies. Once ready for experiment, HLMVECs were seeded at a density of 6K cells per well of the 96 well optical microplates (Thermofisher) in the complete growth medium described above and the plated cells were incubated for 24 hours at 37° C. in a humidified incubator with 5% CO2. […] The values are published in the Human Metabolome Database (Wishart D S, et al., Nucleic Acids Res. 2007 January; 35:D521-6) which is hereby incorporated by reference in its entirety. The medium was also supplemented with growth factors & antibiotics from EGM2-MV kit (Lonza) except the kit-provided FBS which was substituted with dialyzed FBS (Hyclone). […]). […] were run in duplicate and data was normalized to corresponding TNF-α control for respective treatments as specified in the tables. Mean percent change in level of adhesion markers are reported herein. Statistical analysis was done using two sample t-test.

The test system of another assay is ICAM-1. The assay is described as follows: ICAM-1 cell integrated intensity in HLMVEC treated with TNF-α (immunofluorescence). Particulars: for TNFα induced ICAM-1 expression levels in HLMVEC: 0.5 ng/mL TNF-α, amino acids at 20× HMDB, 24 hours. The essentials:
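Primary human lung microvascular endothelial cells, 24 h in medium with SCD-like amino acid profile plus 0.5 ng/mL TNF-α, with or without amino acids at 20× mean plasma level. Fixed, immunostained for ICAM-1 and VCAM-1; integrated intensity per cell by high-content imaging.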

Another assay has as its system sICAM-1. The assay is described as follows: Soluble ICAM-1 in HLMVEC/TNF-α model (Luminex). The settings on record: for sICAM-1 expression relative to TNF Control, Mean % Change: 20×HMDB amino acids, 24 h co-treatment. The procedure:
as §1

In another assay the test system is HLMVEC. As to the kind of experiment: META-rank score, composite of VCAM1, ICAM1 and IL6 in the HLMVEC model. The settings on record: HLMVEC + TNF-α; lower score = more optimal; 20x HMDB / 5 mM. How it is done: The ability of single amino acids and combinations to simultaneously impact these phenotypes was measured by a META-rank score (Tables 17 and 18). META-rank score is a composite measure that considers the optimal impact on all 3 phenotypes (e.g. decrease VCAM1, ICAM1, and IL6) in the HLMVEC model.

As to `NC(=O)CC[C@H](N)C(=O)O` [Glutamine, L-glutamine], the “IL-6 expression relative to TNF Control, Mean % Change” value in the assay on IL-6 (TNF Conc 0.5 ng/mL) is listed as −1.168%; in the assay with IL-6 (TNF Conc 25 ng/mL) it was 14.3622%. Also, the “lowering IL-6” value in the assay with IL-6 (either TNF-α group) was “largely ineffective”. Besides, the “sVCAM-1 expression relative to TNF Control, Mean % Change” value was determined as 566.0015% with sVCAM-1 (TNF Conc 0.5 ng/mL) and 755.2941% with sVCAM-1 (TNF Conc 25 ng/mL). The “increase in sVCAM-1 level relative to control” value with sVCAM-1 (both TNF-α groups) was greater than 570%. The “TNFα induced ICAM-1 expression levels in HLMVEC” value in the assay with ICAM-1 is “increased”. Besides, the “sICAM-1 levels” value in the assay with sICAM-1 (0.5 ng/mL TNF-α (low), 20×HMDB, 24 h) was “failed to reduce”. Further, the figures for the “sICAM-1 expression relative to TNF Control, Mean % Change” value in the assay on sICAM-1 (TNF Conc 0.5 ng/mL) and in the assay with sICAM-1 (TNF Conc 25 ng/mL) were 5.573% and 142.4986%, respectively. The “sICAM-1 level increased by” value in the assay on sICAM-1 (TNF-α 25 ng/mL, 20×HMDB, 24 h) came to 142%.

With `CC(=O)N[C@@H](CS)C(=O)O` [N-Acetyl Cysteine, N-acetylcysteine], in the assay on HLMVEC, the “Meta-Rank (Table 18)” value is given as 4 and the “Metarank (Table 17)” value turned out to be 6. Further, the “TNFα induced ICAM-1 expression levels in HLMVEC” value in the assay on ICAM-1 is “reduced levels of ICAM-1 expression to a lesser extent”. Further, the “ICAM-1 Cell Integrated Intensity Median” value with ICAM-1 (HLMVEC + 0.5 ng/mL TNF-α, 24 h, amino acids 20x HMDB, Nac/Cit/Car 5 mM as bracketed) is recorded as −0.222.
